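Dose response: 5 concentrations. Exposure: 48 h. Format: 96-well plates. Endpoint: linear interpolation; highest concentration if not reached. Here, GI50 denotes the concentration required for 50% inhibition of growth.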 The source made the active and inactive calls. Rule as the data show it: active = GI50 up to about 1.1 µM and inactive = higher.
Tests used:
Test in all cases: growth of human tumour cells (NCI), 48 h
[1] = test system: Hs-578T
[2] = test system: SF-539
[3] = test system: A549
[4] = test system: Malme-3M
[5] = test system: HOP-62
[6] = test system: MDA-MB-231
[7] = test system: CCRF-CEM
[8] = test system: HOP-92
[9] = test system: EKVX
[10] = test system: MDA-MB-435
[11] = test system: IGROV-1
[12] = test system: TK-10
[13] = test system: HCT-116
[14] = test system: OVCAR-3
[15] = test system: SN12C
[16] = test system: SW-620
[17] = test system: U-251
[18] = test system: OVCAR-5
[19] = test system: UACC-62

Measured: GI50

COc1ccc(/C=C/c2nccc3ccccc23)cc1OC
inactive: [1] > 10 µM | [2] > 10 µM | [3] > 10 µM | [4] > 10 µM | [5] > 10 µM | [6] 2.77 µM | [7] 6.52 µM | [8] 6.17 µM | [9] > 10 µM | [10] 6.64 µM | [11] > 10 µM | [12] > 10 µM | [13] 5.9 µM | [14] 9.2 µM | [15] 9.48 µM | [16] > 10 µM | [17] > 10 µM | [18] > 10 µM | [19] > 10 µM

O=C(O)CNC(=O)c1ccc([As](=O)(O)O)cc1
inactive: [1] > 100 µM | [3] > 100 µM | [4] > 100 µM | [5] > 100 µM | [6] > 100 µM | [7] > 100 µM | [8] > 100 µM | [9] > 100 µM | [10] > 100 µM | [11] > 100 µM | [12] > 100 µM | [13] > 100 µM | [14] > 100 µM | [15] > 100 µM | [16] > 100 µM | [17] > 100 µM | [18] > 100 µM | [19] > 100 µM

C=CCCCCOC1C=CC(O)C(CO)O1 (stereo not drawn)
inactive: [1] 30.1 µM | [2] > 100 µM | [3] > 100 µM | [4] > 100 µM | [5] > 100 µM | [6] > 100 µM | [7] > 100 µM | [8] > 100 µM | [9] > 100 µM | [10] > 100 µM | [11] > 100 µM | [12] > 100 µM | [13] > 100 µM | [14] > 100 µM | [15] > 100 µM | [16] > 100 µM | [17] > 100 µM | [18] > 100 µM | [19] > 100 µM

O=C(C1OC1c1ccc(Br)cc1O)C12CC3CC(CC(C3)C1)C2 (stereo not drawn)
inactive: [1] 15.7 µM | [2] 95.1 µM | [3] 37.8 µM | [4] 20 µM | [5] 26.2 µM | [6] 18.1 µM | [7] 23.5 µM | [8] 17.7 µM | [9] > 100 µM | [10] 13.8 µM | [11] 32 µM | [12] 33.9 µM | [13] 14.9 µM | [14] 31.5 µM | [15] 15.6 µM | [16] 18.7 µM | [17] 15.7 µM | [18] 41.5 µM | [19] 15.5 µM

[N-]=[N+]=NC1=NNC2(C(=O)N1)c1ccccc1-c1ccccc12
inactive: [1] 27.6 µM | [2] > 100 µM | [3] > 100 µM | [4] 18.1 µM | [5] > 100 µM | [6] > 100 µM | [7] > 100 µM | [8] > 100 µM | [9] > 100 µM | [10] 17.4 µM | [11] > 100 µM | [12] > 100 µM | [13] 14.2 µM | [14] > 100 µM | [15] > 100 µM | [16] > 100 µM | [17] > 100 µM | [18] > 100 µM | [19] > 100 µM

CC/C(Cl)=N\OC(=O)Nc1ccc(F)cc1F
inactive: [1] 32.2 µM | [2] 7.01 µM | [3] 19.9 µM | [4] 2.9 µM | [5] 21 µM | [6] 17.5 µM | [7] 1.54 µM | [8] 1.93 µM | [9] 8.55 µM | [10] 17 µM | [11] 15.9 µM | [12] 12 µM | [13] 6.62 µM | [14] 17 µM | [15] 5.73 µM | [16] 1.93 µM | [17] 22.4 µM | [18] 17.9 µM | [19] 15.2 µM

C#CCNCC(=O)O
inactive: [1] > 100 µM | [2] > 100 µM | [3] > 100 µM | [4] > 100 µM | [5] > 100 µM | [6] > 100 µM | [7] > 100 µM | [8] > 100 µM | [9] > 100 µM | [10] > 100 µM | [11] > 100 µM | [12] > 100 µM | [13] > 100 µM | [14] > 100 µM | [16] > 100 µM | [17] > 100 µM | [18] > 100 µM | [19] > 100 µM

Cn1c(N)nc(-c2ccc(Cl)cc2)c1SSc1c(-c2ccc(Cl)cc2)nc(N)n1C
inactive: [1] 27.1 µM | [2] 1.71 µM | [3] 12.8 µM | [4] 2.3 µM | [5] 2.86 µM | [6] 1.4 µM | [7] 2.44 µM | [8] 1.97 µM | [9] 2.73 µM | [10] 2.05 µM | [11] 2.99 µM | [12] 1.86 µM | [13] 4.23 µM | [14] 1.82 µM | [15] 3.42 µM | [16] 2.07 µM | [17] 2.03 µM | [18] 1.86 µM | [19] 2.3 µM

CCOC1OC(CO)C(O)CC1n1ccc(=O)[nH]c1=O (stereo not drawn)
inactive: [1] > 100 µM | [2] > 100 µM | [3] > 100 µM | [4] > 100 µM | [6] > 100 µM | [8] > 100 µM | [9] > 100 µM | [10] > 100 µM | [11] > 100 µM | [12] > 100 µM | [13] > 100 µM | [14] > 100 µM | [15] > 100 µM | [16] > 100 µM | [17] > 100 µM | [18] > 100 µM | [19] > 100 µM

COC(=O)CCCc1ccc2c(c1)CC1(Cc3ccccc3C1)C2
inactive: [1] > 100 µM | [2] > 100 µM | [3] 58.9 µM | [4] 87.1 µM | [5] > 100 µM | [6] > 100 µM | [7] 29.6 µM | [8] > 100 µM | [9] > 100 µM | [10] 20.6 µM | [11] > 100 µM | [12] > 100 µM | [13] 26 µM | [14] 62.2 µM | [15] 88.5 µM | [17] > 100 µM | [18] > 100 µM | [19] > 100 µM

CC1OC23CCCCC2C(C#N)(C#N)C1(C#N)C(=N)O3 (stereo not drawn)
inactive: [1] 21.8 µM | [2] 21.8 µM | [3] 96.2 µM | [4] 20.4 µM | [6] 15.7 µM | [7] 5.94 µM | [8] 13.8 µM | [9] 28.6 µM | [10] 20.8 µM | [11] 19.6 µM | [12] 22.5 µM | [13] 16.6 µM | [14] 17.7 µM | [15] 15.3 µM | [16] 8.75 µM | [17] 22.8 µM | [18] 22 µM | [19] > 10 µM
